Measured values reported in PMC11418212, “Characterization of four structurally diverse inhibitors of SUR2-containing KATP channels” (Channels, 2024).
“Also recorded” adds a separate entry of the source.

How the values were obtained:
Type in all cases: cell-based
[1] = biological target: Kir6.2/SUR1 (Homo sapiens, UniProt Q09428); experiment: Thallium flux activation dose-response without channel pre-activation; conditions: no channel pre-activation; doses up to 30 µM
Method: (§1) Thallium flux assays were conducted using the established methods. Stably transfected T-REx-HEK-293 cells expressing Kir6.2/SUR1 or Kir6.1/SUR2B were cultured overnight in polyamine-coated plates (black-walled, clear-bottomed; BD, Bedford, MA) at a density of 20,000 cells in 20 µl per well of cell culture media. The expression of Kir6.2/SUR1 or Kir6.1/SUR2B channels was induced by treating cells with 1 µg/ml tetracycline overnight. The following day, cells were rinsed with an assay buffer (Hanks’ Balanced Salt Solution supplied with 20 mM HEPES), loaded with the thallium-sensor dye Brilliant Thallos-AM AM (Ion Bioscience, San Marcos, TX) for 1 h, and then washed again with assay buffer to remove unincorporated dye. The cell plate was subsequently placed in a Panoptic Kinetic Imaging Plate Reader (Wavefront Bioscience, Franklin, TN) and imaged at a frequency of 1 Hz using 482/35 nm (excitation) and 536/40 nm (emission) filter sets. Kir6.1/SUR2B channels were activated with 10 µM pinacidil, whereas Kir6.1/SUR1 was activated with 30 µM VU0071063 [34]. To activate KATP channels independent of activators with ATP-depletion method, cells were treated with a cocktail of metabolic inhibitors (2.5 mM sodium cyanide and 20 mM 2-deoxy glucose) for 25 min before imagine. Control and test compounds diluted freshly from DMSO stocks into assay buffer were added to wells for four minutes before adding 0.5 mM chloride-free thallium stimulus buffer (Ion Bioscience) to initiate thallium flux through the expressed KATP channels. Thallium flux was recorded from all 384-wells for 2 min before terminating the experiment. […] Selectivity assays against other Kir channels were performed as described previously.
(§2) We therefore systematically explored this possibility in dose–response experiments against Kir6.2/SUR1 in the absence of channel pre-activation. Kir6.1/SUR2B was also evaluated for comparison.
(§3) Figure 6. Paradoxical activation of Kir6.2/SUR1. […] Fluorescence intensity at each dose was normalized to that in the absence of drug. […] (b) Activities of indicated compounds at 30 μM toward Kir6.1/SUR2B normalized to that of 30 μM pinacidil. […] (d) Activities of indicated compounds at 30 μM toward Kir6.2/SUR1 normalized to that of 30 μM VU0071063.

[2] = biological target: T1, Kir6.1/SUR2B (Homo sapiens, UniProt O60706); experiment: as above; conditions: no channel pre-activation; doses up to 30 µM
T1 construct: expressed in transfected cells; Kir6.1 tetracycline-inducible, SUR2B constitutive
Method: as §1, §2, §3

[3] = biological target: T1, Kir6.1/SUR2B; experiment: Whole-cell patch clamp electrophysiology, T-Rex-HEK293-Kir6.1/SUR2B cells; conditions: 10 µM compound in continued presence of pinacidil (1 μM in Figure 2)
Method: Whole-cell patch clamp electrophysiology experiments were conducted as described previously. Briefly, stably transfected T-Rex-HEK293 cells expressing Kir6.1/SUR2B were seeded at a density of 250,000 cells per 35-mm dish coated with tissue culture-treated polystyrene and incubated at 37°C in a 5% CO2 atmosphere. Whole-cell patch-clamp experiments were initiated 48 h post-seeding. On the day of the experiment, cells were dissociated and seeded onto poly-L-lysine-coated glass coverslips, where they were allowed to recover for at least one hour in a 37°C/5% CO2 incubator prior to the recordings. Patch pipettes with resistances of 2 to 3 MΩ were employed, containing an internal solution composed of 130 mM KCl, 2 mM MgCl2, 1 mM EGTA, 20 mM HEPES-free acid, and 1 mM Na2ADP, adjusted to pH 7.3 with KOH and an osmolarity of 275 mOsmol/kg with sucrose. The extracellular solution consisted of 135 mM NaCl, 5 mM KCl, 2 mM CaCl2, 1 mM MgCl2, 5 mM glucose, and 10 mM HEPES-free acid adjusted to pH 7.4 with NaOH. Test compounds were initially diluted in DMSO before being further diluted into the bath solution, maintaining a final DMSO concentration of less than 0.1% v/v. Recordings of macroscopic currents were conducted in a voltage-clamp setup using an Axopatch 200B Amplifier (Molecular Devices, Sunnyvale, CA), with data sampled at 5 kHz and low-pass filtered at 1 kHz. A ramp protocol was used to generate current–voltage curve relationships. The voltage protocol involved holding the cells at −75 mV, followed by a 200-msec step to −120 mV, a linear ramp to 120 mV over 240 msec at a rate of […], maintaining at 120 mV for 15 msec, and finally stepping back to −120 mV for 100 msec, with this sequence repeated every 5 seconds. […] All data acquisition and analyses were performed using pClamp software version 9.2 (Molecular Devices).
Gold-standard voltage-clamp electrophysiology was used to confirm the inhibitory effects of VU0212387, VU0543336, VU0605768, and VU0544086 on Kir6.1/SUR2B channel activity (Figure 2a–d).
Figure 2. Confirmation of VU0212387, VU0543336, VU0605768, or VU0544086-dependent inhibition of Kir6.1/SUR2B with patch clamp electrophysiology. […] VU compounds tested were (a) VU0212387, (b) VU0543336, (c) VU0605768, or (d) VU0544086. Data mean ± SD current density (n = 3).

Chain of Kir6.2/SUR1 (Q09428 whole entry, species assumed): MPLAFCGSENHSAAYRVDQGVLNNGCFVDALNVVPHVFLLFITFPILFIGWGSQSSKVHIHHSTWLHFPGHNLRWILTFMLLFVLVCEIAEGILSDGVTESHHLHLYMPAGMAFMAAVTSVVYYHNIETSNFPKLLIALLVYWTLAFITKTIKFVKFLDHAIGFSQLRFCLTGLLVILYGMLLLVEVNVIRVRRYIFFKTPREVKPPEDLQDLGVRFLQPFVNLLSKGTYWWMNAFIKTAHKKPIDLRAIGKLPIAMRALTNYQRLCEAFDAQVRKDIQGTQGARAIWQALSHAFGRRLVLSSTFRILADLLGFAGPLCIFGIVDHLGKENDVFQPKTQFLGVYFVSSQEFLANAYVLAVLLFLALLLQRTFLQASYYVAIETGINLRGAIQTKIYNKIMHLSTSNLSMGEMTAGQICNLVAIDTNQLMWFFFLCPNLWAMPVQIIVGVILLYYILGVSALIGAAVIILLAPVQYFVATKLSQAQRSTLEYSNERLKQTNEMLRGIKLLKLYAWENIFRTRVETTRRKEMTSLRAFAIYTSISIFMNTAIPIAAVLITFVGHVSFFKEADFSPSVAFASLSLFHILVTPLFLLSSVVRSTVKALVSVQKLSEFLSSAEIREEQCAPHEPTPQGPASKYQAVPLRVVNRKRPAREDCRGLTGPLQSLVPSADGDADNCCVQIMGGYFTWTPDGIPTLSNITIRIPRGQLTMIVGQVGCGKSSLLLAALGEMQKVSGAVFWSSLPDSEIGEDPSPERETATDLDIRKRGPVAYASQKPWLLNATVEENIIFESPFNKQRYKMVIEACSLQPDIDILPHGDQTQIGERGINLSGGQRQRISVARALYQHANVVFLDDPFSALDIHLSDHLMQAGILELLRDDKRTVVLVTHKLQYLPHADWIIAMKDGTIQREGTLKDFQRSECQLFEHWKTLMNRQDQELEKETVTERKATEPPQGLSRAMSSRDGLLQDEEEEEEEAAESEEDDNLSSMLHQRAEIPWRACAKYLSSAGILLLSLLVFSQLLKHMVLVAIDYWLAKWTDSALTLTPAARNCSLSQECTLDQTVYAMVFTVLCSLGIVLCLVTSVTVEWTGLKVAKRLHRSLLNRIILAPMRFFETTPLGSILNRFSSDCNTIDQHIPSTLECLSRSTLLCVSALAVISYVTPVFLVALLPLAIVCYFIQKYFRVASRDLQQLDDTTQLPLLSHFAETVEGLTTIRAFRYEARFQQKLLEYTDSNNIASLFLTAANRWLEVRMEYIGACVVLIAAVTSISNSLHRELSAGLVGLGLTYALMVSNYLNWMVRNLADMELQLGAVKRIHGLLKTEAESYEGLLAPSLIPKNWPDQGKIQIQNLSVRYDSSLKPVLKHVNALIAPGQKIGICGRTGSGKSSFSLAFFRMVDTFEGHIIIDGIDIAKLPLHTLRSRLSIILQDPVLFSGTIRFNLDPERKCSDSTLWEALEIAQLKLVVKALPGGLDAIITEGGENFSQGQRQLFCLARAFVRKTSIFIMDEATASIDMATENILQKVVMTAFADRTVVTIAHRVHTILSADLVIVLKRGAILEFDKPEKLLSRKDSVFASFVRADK
Chain of Kir6.2/SUR1 (Q14654 whole entry partner, species assumed): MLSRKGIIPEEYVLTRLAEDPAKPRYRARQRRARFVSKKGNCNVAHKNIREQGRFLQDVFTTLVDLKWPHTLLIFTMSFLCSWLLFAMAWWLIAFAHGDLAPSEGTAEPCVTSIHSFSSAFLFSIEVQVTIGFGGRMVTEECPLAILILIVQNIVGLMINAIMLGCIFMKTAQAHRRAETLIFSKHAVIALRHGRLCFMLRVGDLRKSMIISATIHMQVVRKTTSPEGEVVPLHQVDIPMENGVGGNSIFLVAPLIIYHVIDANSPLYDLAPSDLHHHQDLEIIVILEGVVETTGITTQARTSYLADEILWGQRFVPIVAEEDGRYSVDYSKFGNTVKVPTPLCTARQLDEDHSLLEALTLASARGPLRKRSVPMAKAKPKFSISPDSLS
T1 sequence (O60706 1-1549 isoform O60706-2, species assumed): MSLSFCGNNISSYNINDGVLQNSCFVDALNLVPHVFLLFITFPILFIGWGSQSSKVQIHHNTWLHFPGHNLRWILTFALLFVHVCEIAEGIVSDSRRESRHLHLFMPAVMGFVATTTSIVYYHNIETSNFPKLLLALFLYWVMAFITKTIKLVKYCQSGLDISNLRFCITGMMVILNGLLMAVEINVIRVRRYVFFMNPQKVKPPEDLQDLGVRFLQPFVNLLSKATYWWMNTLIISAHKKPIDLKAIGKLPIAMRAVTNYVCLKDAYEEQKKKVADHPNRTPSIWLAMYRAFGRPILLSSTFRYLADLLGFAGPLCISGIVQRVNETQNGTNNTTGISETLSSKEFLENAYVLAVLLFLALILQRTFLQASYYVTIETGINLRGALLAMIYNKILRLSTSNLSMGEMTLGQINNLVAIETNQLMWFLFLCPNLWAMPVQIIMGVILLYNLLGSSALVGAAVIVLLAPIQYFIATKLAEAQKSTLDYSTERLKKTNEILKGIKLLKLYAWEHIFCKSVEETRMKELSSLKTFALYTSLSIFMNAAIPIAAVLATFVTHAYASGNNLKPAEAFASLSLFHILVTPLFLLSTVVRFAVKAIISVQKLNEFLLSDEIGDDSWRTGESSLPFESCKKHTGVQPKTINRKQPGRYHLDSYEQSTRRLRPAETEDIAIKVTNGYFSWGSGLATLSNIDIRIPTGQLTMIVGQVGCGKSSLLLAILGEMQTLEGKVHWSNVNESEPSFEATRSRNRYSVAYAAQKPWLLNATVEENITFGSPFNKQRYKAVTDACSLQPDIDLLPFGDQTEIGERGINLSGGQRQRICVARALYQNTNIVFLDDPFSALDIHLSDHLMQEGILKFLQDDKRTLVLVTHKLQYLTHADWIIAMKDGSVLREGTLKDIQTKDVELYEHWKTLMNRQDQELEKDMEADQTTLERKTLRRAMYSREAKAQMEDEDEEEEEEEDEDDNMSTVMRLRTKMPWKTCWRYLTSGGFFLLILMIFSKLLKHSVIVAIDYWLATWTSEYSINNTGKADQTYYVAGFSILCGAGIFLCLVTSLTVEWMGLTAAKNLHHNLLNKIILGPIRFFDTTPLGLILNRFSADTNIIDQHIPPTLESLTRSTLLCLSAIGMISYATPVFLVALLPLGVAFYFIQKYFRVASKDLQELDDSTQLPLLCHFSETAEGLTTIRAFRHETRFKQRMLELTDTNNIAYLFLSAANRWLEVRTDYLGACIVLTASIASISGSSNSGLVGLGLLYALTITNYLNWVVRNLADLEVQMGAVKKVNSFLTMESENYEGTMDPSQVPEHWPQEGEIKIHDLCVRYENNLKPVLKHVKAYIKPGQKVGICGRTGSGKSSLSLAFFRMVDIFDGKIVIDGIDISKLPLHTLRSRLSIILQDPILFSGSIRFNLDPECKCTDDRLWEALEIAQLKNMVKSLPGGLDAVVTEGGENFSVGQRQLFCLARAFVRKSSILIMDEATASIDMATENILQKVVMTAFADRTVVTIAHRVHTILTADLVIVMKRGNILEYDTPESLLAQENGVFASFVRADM
T1 sequence (Q15842 whole entry partner, species assumed): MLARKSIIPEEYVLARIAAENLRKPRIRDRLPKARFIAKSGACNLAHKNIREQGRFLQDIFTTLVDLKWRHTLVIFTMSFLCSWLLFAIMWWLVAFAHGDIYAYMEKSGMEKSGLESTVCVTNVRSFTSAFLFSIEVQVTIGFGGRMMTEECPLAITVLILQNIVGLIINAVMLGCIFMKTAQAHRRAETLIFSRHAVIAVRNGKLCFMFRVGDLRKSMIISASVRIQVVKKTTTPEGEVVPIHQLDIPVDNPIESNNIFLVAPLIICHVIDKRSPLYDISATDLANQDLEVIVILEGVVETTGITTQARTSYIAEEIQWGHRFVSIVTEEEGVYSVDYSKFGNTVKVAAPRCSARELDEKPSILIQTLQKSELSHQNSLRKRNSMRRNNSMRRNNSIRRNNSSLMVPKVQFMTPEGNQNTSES

SMILES | Activation of Kir6.2/SUR1 [1] | Activation of Kir6.1/SUR2B [2] | Inhibition of Kir6.1/SUR2B whole-cell current [3]
O=C(NCc1cc(-c2ccncc2)n(C2CCCC2)n1)Nc1cccs1 [VU0544086, 1-((1-cyclopentyl-5-(pyridin-4-yl)-1 H-pyrazol-3-yl)methyl)-3-(thiophen-2-yl)urea] | failed to activate | failed to activate | complete KATP channel inhibition
O=C(NCC(O)(c1ccccc1)C(F)(F)F)c1ccc(OC(F)(F)F)cc1 (stereo not drawn) [VU0543336, N-(3,3,3-trifluoro-2-hydroxy-2-phenylpropyl)-4-(trifluoromethoxy)benzamide] | dose-dependently activated; also recorded: induced dose-dependent Kir6.2/SUR1 activation; also recorded: activate Kir6.2/SUR1 at higher drug doses | failed to activate | complete KATP channel inhibition
O=C1c2oc3ccccc3c(=O)c2C(c2cccc(Br)c2)N1CCO (stereo not drawn) [VU0605768, 1-(3-bromophenyl)-2-(2-hydroxyethyl)-1,2-dihydrochromeno[2,3-c]pyrrole-3,9-dione] | dose-dependently activated; also recorded: induced dose-dependent Kir6.2/SUR1 activation; also recorded: activate Kir6.2/SUR1 at higher drug doses | failed to activate | complete KATP channel inhibition
c1ccc2[nH]c(CSc3ncnc4c3oc3ccccc34)nc2c1 [VU0212387, 4-(((1 H-benzo[d]imidazol-2-yl)methyl)thio)benzofuro[3,2-d]pyrimidine] | dose-dependently activated; also recorded: induced dose-dependent Kir6.2/SUR1 activation; also recorded: activate Kir6.2/SUR1 at higher drug doses | failed to activate | complete KATP channel inhibition
